From patent publication US4132738A, “Preparation of 15-deoxy-16-hydroxyprostaglandins” (Miles Laboratories, Inc., priority 1978, dated 1979)

What was measured:
[1] = tested on: blood pressure in the hypertensive rat; experiment: Effects on systolic blood pressure in the hypertensive rat; assay type: in vivo; parameters: key: 0: Not significant at any time interval; 1: Significant at one time interval; 2: Significant at two time intervals; settings: 1 mg/kg intraperitoneal; 2, 4, 6 and 9 hours
Protocol: The acute anithypertensive activity of test compounds was determined in rats made hypertensive by the procedure of Grollman (Proc. Soc. Exper Biol. Med., 57: 102 [1944]). Female rats weighing between 60 and 100 g were anesthetized with ether, the right kidney approached through a flank retroperitoneal incision, decapsulated and tied with a figure-of-eight-ligature. The animals were left to recover and two weeks later were again anesthetized and the contralateral kidney removed. Four weeks after the second operation the rats were subjected to indirect blood pressure measurements and those showing systolic pressure values greater than 160 mmHg were selected for drug testing.
Blood pressure was measured in the tail with an inflatable occluding cuff placed at the base of the extremity and a pulse detector located distally. The cuff was inflated to approximately 300 mmHg and was slowly deflated until pulsations appeared, indicating the level of systolic pressure; diastolic pressure was not recorded by this procedure. All measurements were carried out in unanesthetized, unsedated animals maintained in a warm environment during the recording procedure and for at least 6 hours before. In all cases, three pressure readings were obtained in succession and mean values were calculated thereof.
Experiments were carried out in groups of five hypertensive rats in which systolic pressure was determined immediately before and 2, 4, 6 and 9 hours after intraperiotoneal administration of the test compound at a dose of 1 mg/kg. Drugs were diluted from stock solutions with phosphate buffer (Lee et. al., Prostaglandins, 29 [1973]), so as to inject this quantity in a volume of 1 ml/kg. Changes from control blood pressure values were calculated for each interval both in mmHg and in percent, and evaluated for significance by means of Wilcoxon's signed rank test (Wilcoxon, R. and Wilcox, R. A., "Some Rapid Approximate Statistical Procedures," Lederle Laboratories, Pearl River [1964]).

[2] = tested on: gastric secretion in the rat; experiment: Effects on gastric secretion in the rat; assay type: in vivo; settings: comparison in words
Protocol: A procedure based on that described by Lipman, W. (J. Pharm. Pharmacol., 21: 335 [1968]) was used to assess the influence of test compounds on gastric secretion. Rats of one sex weighing 150 to 200 g were randomly divided into groups of six animals each and fasted for 48 hours previous to the experiments, water being available ad libitum. The animals were anesthetized with ether, the abdomen opened through a midline incision, and the pylorus ligated. Test compounds were diluted from stock solution so as to administer a dose of 1.5 mg/kg in a volume equivalent to 1 ml/kg. Subcutaneous injections were applied immediately after surgery and again 2 hours later, so that a total dose of 3.0 mg/kg was administered. Dilutions were made with phosphate buffer (pH 7.38) as recommended by Lee et al. (Prostaglandins, 3: 29 [1973]) in order to insure adequate stability of drugs at the subcutaneous depot. Each compound was tested in one group of rats; an additional control group received only the vehicle.
Four hours after pyllric ligation the animals were killed with ether, the cardias ligated, and the stomachs removed. The volume of gastric secretion was measured and the contents centrifuged at 5000 rpm for 10 minutes. Total acid in the supernatant was titrated against a 0.1 N sodium hydroxide solution and the amount expressed in mEq.
Volume and total acid values of the treated group were compared with those of the controls […]. Antisecretory activity was scored according to the following scale: […]

[3] = tested on: femoral blood flow in the anesthetized dog; experiment: Effects on femoral blood flow in the anesthetized dog; assay type: in vivo; settings: comparison in words
Protocol: The peripheral vasodilator or constrictor effects of test compounds were determined in mongrel dogs of either sex, weighing between 10 and 20 kg, anesthetized intravenously with 35 mg/kg of pentobarbital sodium. An external iliac artery was dissected immediately above the femoral arch for a length of approximately 5 cm, and a previously calibarated, non-cannulating electromagnetic-flowmeter sensor with a lumen between 2.5 and 3.5 mm was placed snugly around the vessel. Cannulas were placed in a branch of the artery arising distally to the location of the flowmeter sensor for intraarterial drug administrations, in the contralateral femoral artery for systemic blood pressure recording, and in the trachea for artificial respiration with room air. Femoral blood flow and systemic blood pressure were continuously recorded with an electromagnetic flowmeter and pressure transducer, respectively.
After an adequate control period, test compounds were injected intraarterially at one log-spaced doses ranging from 0.001 to 10 mcg, in a volume of 0.5 ml and at 5 to 10 minute intervals. […] The dose changing blood flow by 100 ml/min (ED100 ml/min) was calculated graphically and was used for scoring activity as follows: […]

guinea pig trachea = experiment: Effects on the guinea pig trachea in vitro; assay type: cell-based; settings: comparison in words
Protocol: A male guinea pig weighing 200-500 g was killed by a blow on the head. A 20 mm length of the trachea was dissected from the animal, transferred to a petri dish containing Krebs' solution (aerated with 95% O2 and 5% CO2 at 37° C.), and cut longitudinally opposite the tracheal muscle. The tissue was then cut transversely three quarters of the distance across, a second cut in the opposite direction (again three quarters of the distance across the tissue) was made and the procedure was continued for the whole tissue. The ends of the trachea were pulled to form a zig-zig shaped strip. The tracheal strip used in the experiment was approximately 30 mm when extended under 0.25-0.5 g load in the tissue bath. Cotton thread was tied to one end of the tissue, and linen thread to the other. It was attached via the linen thread to a glass hook in a 5 ml isolated tissue bath containing Krebs' solution (37° C., aerated with a mixture of 95% O2 and 5% CO2). The opposite end was attached via cotton to an isotonic Harvard transducer (Model 386 Heart/Smooth Muscle Transducer, Harvard Apparatus). The load on the transducer lever was small, usually 0.3 g, with a range of 0.25-0.5 g, and the magnification high, 80 fold using an appropriate twin-channel pen recorder. A minimum of thirty minutes was allowed before applying a test compound to the tissue. Test compounds were then applied (in volumes of 0.5 ml) at thirty minute intervals, being in contact with the tissue for five minutes followed by an overflow washout time of twenty seconds.
Prostaglandin E1, at a bath concentration of 0.1 mcg/ml, was then tested repeatedly on two such strips, obtained from two different animals, until two responses (the values of which are recorded) differing by no more than 25% occur. A test compound was then added to the same two strips at bath concentrations of 0.01, 0.1, 1.0, and 10.0 mcg/ml and the effects of the compound were recorded. After the test compound had been evaluated at the highest concentration, PGE1 was retested at 0.1 mcg/ml (and the value of the response recorded) to insure that the viability of the strips was retained during the experiment. The mean of the effects of the test compound on the two strips was then calculated for each concentration, and, biased on the resulting values, an activity value was assigned as follows: […]

CCCCC(O)C/C=C/[C@H]1[C@H](O)CC(=O)[C@@H]1CCCCCCC(=O)OC (stereo partly drawn) [TR 4705, Methyl 11α, 16RS-dihydroxy-9-oxoprost-13E-en-1-oate, reference compound]
Blood Pressure Hypertensive Rat: activity value [1]: 0
GAS value, carbinol versus methyl ester analogue [2]: the same
Femoral blood flow value, methyl ester versus carbinol [3]: slightly higher
Guinea pig trachea value, carbinol versus methyl ester analogue (guinea pig trachea): the same

CCCCC(C)(O)C/C=C/[C@H]1[C@H](O)CC(=O)[C@@H]1CCCCCCC(=O)OC (stereo partly drawn) [TR 4704, Methyl 11α, 16RS-dihydroxy-16-methyl-9-oxoprost-13E-oate, reference compound]
Blood Pressure Hypertensive Rat: activity value [1]: 0
GAS value, carbinol versus methyl ester analogue [2]: the same
Femoral blood flow value, methyl ester versus carbinol [3]: significantly and undesirably higher
Guinea pig trachea value, carbinol versus methyl ester analogue (guinea pig trachea): the same
